In patent publication US20230051694A1, “POLYPEPTIDE FRAGMENT B (MP-B) AND USE THEREOF” (SHANGHAI LONGXIN BIOMEDICAL TECHNOLOGY CO., LTD., priority 2021, published 2023):

B1: THTVGSYFSVQNGYVGAFSQALGNSEYAMNSPLGSLDGRTTMYNLLGVKYLFAREDQ LKKQ (peptide, listed as Lactobacillus plantarum)
chain: THTVGSYFSVQNGYVGAFSQALGNSEYAMNSPLGSLDGRTTMYNLLGVKYLFAREDQLKKQ
notes: positive control

System: DSS-induced IBD in mice
Assay: Intervention effect on DSS-induced acute IBD mouse model
Format: in vivo, Male C57BL6 mice
Details: DSS 2.5 wt % induced acute IBD mice, 50 μg/kg intragastric; for colonic histopathologic score / colon length: 7 days pre-administration then daily with DSS, x±SD; for colonic histopathologic score: HE staining; for colon length: in cm (unit assumed)
Procedure: The administration of a DSS solution with a specified concentration to mice can induce an acute IBD model characterized by diarrhea, hematochezia, ulcer, and granulocyte infiltration. Mice were randomly grouped according to body weights of the mice. 40 healthy male C57BL6 mice were divided into four groups each with 10 mice:
blank control group: the mice were each intragastrically administered with water every day at a volume of 0.4 mL/20 g;
model group: the mice were each intragastrically administered with a DSS aqueous solution of a mass fraction of 2.5 wt % consecutively for 7 days, where the DSS aqueous solution was freshly prepared and changed every day;
(§1) MIMP positive control group: the mice were each given a pre-administration process for one week, that is, the mice were each intragastrically administered with an MIMP solution of a mass fraction of 50 μg/kg for the first 7 days, and then from day 8, the mice were each intragastrically administered with a DSS aqueous solution of a mass fraction of 2.5 wt % (at a volume of 0.4 mL/20 g) and an MIMP solution of a mass fraction of 50 μg/kg (at a volume of 0.4 mL/20 g) every day; and
as §1, with “MP-B experimental” for “MIMP positive control”, “MP-B” for “MIMP”, “and” for “and then”, “day.” for “day; and”
The body weight changes of mice in each group were recorded every day to determine whether the acute IBD mouse model was successfully established.
A mouse colon between an anus end to an ileocecal end was integrally collected, and a length of the colon was measured; and the colon was dissected along a longitudinal axis, feces therein were rinsed off, and then the colon was stored in 4% paramethanol.
The colon sample stored in 4% paramethanol in step 1.2 was subjected to histopathological section, stained with hematoxylin-eosin (HE), and dehydrated, obtained sections were sealed and examined under an optical microscope, and the histopathological scoring was conducted by two blind examination operators:
Experimental data in the above experimental method were expressed as (x±SD), the GraphPad Prism (ver. 8.0, GraphPad Software Inc., San Diego, Calif., USA) was used to plot a chart, the SPSS Program (ver. 25.0, SPSS Inc., Chicago, Ill., USA) was used for statistical test, and one-way ANOVA or independent two-sample t-test were used for significance test when the normality and homogeneity of variances were met. It was assumed that α=0.05, and P<0.05 indicates a statistically significant difference.

Row | Molecule | colonic histopathological observation (HE staining micrographs) | colonic histopathologic score | colon length
1 | SPLGSLDGRETMYNLGGVKYLFARMDQLKKQ (SPLGSLDGRXTMYNLXGVKYLFARXDQLKKQ; Sequence is synthesized; (10)..(10) Xaa can be Arg, Phe, Glu, Thr, or absent; (16)..(16) Xaa can be Asn, Val, Leu, Gly, or absent; (25)..(25) Xaa can be Ser, Glu, Met, Arg, or absent) [MP-B] | no obvious inflammation | 1.4±0.6 | 8.0±0.5
2 | B1 | – | 3.1±0.2 | 7.6±0.5
